PubChem BioAssay AID2060508 (Molecular Pharmacology Branch, DTP, NCI, 2025)

Test system: 454973-116-R2-J3-PDC spheroids, viability, % test/control
Experiment: Anticancer human tumor 454973-116-R2-J3-PDC patient-derived pancreatic carcinoma cell line growth inhibition [GQUAD]
Conditions: spheroids with HUVEC and MSC; for IC50: curve of first compound; for viability, T/C: stronger effect = lower value
How it was run: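 Viability of tumor cells grown as complex spheroids with endothelial and stromal cells, exposed to drug combinations. Top concentration at or near clinical Cmax (else 10 microM), diluted in half-log increments.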

[1] = second compound 0.0316 µM, first compound 0.0316 µM
[2] = second compound 0.0316 µM, first compound 0.316 µM
[3] = second compound 0.1 µM, first compound 0.0316 µM
[4] = second compound 0.1 µM, first compound 0.316 µM
[5] = second compound 0.316 µM, first compound 0.0316 µM
[6] = second compound 0.316 µM, first compound 0.316 µM
[7] = second compound 1 µM, first compound 0.0316 µM
[8] = second compound 1 µM, first compound 0.316 µM
[9] = second compound 3.16 µM, first compound 0.0316 µM
[10] = second compound 3.16 µM, first compound 0.316 µM
[11] = second compound 10 µM, first compound 0.0316 µM
[12] = second compound 10 µM, first compound 0.316 µM
[13] = second compound 0.0316 µM, first compound 0.1 µM
[14] = second compound 0.0316 µM, first compound 1 µM
[15] = second compound 0.0316 µM, first compound 3.16 µM
[16] = second compound 0.0316 µM, first compound 10 µM
[17] = second compound 0.1 µM, first compound 0.1 µM
[18] = second compound 0.1 µM, first compound 1 µM
[19] = second compound 0.1 µM, first compound 3.16 µM
[20] = second compound 0.1 µM, first compound 10 µM
[21] = second compound 0.316 µM, first compound 0.1 µM
[22] = second compound 0.316 µM, first compound 1 µM
[23] = second compound 0.316 µM, first compound 3.16 µM
[24] = second compound 0.316 µM, first compound 10 µM
[25] = second compound 1 µM, first compound 0.1 µM
[26] = second compound 1 µM, first compound 1 µM
[27] = second compound 1 µM, first compound 3.16 µM
[28] = second compound 1 µM, first compound 10 µM
[29] = second compound 3.16 µM, first compound 0.1 µM
[30] = second compound 3.16 µM, first compound 1 µM
[31] = second compound 3.16 µM, first compound 3.16 µM
[32] = second compound 3.16 µM, first compound 10 µM
[33] = second compound 10 µM, first compound 0.1 µM
[34] = second compound 10 µM, first compound 1 µM
[35] = second compound 10 µM, first compound 3.16 µM
[36] = second compound 10 µM, first compound 10 µM
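Also: spheroids exposed to compounds for seven days.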
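For viability, T/C in this document: 100% = DMSO vehicle control viability.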

Cc1[nH]c2ccccc2c1CCNCc1ccc(/C=C/C(=O)NO)cc1 + CN(C)c1ccc(Nc2c3ccc(NC(=O)CCN4CCCC4)cc3nc3cc(NC(=O)CCN4CCCC4)ccc23)cc1
IC50 (second compound 0.0316 µM): 72.5 nM | IC50 (second compound 0.1 µM): 66.8 nM | IC50 (second compound 0.316 µM): 56.3 nM | IC50 (second compound 1 µM): 48.8 nM | IC50 (second compound 3.16 µM): 53.2 nM | IC50 (second compound 10 µM): 35.4 nM | viability, T/C (second compound 0.0316 µM, first compound 0.000999 µM): 104% | viability, T/C (second compound 0.0316 µM, first compound 0.00316 µM): 102% | viability, T/C (second compound 0.0316 µM, first compound 0.00999 µM): 106% | viability, T/C [1]: 83.2% | viability, T/C (second compound 0.0316 µM, first compound 0.0999 µM): 37.1% | viability, T/C [2]: 6.62% | viability, T/C (second compound 0.1 µM, first compound 0.000999 µM): 107% | viability, T/C (second compound 0.1 µM, first compound 0.00316 µM): 96.7% | viability, T/C (second compound 0.1 µM, first compound 0.00999 µM): 92.8% | viability, T/C [3]: 89.5% | viability, T/C (second compound 0.1 µM, first compound 0.0999 µM): 28.9% | viability, T/C [4]: 6.22% | viability, T/C (second compound 0.316 µM, first compound 0.000999 µM): 93.8% | viability, T/C (second compound 0.316 µM, first compound 0.00316 µM): 93.3% | viability, T/C (second compound 0.316 µM, first compound 0.00999 µM): 99.2% | viability, T/C [5]: 68.7% | viability, T/C (second compound 0.316 µM, first compound 0.0999 µM): 30.2% | viability, T/C [6]: 6.88% | viability, T/C (second compound 1 µM, first compound 0.000999 µM): 96.8% | viability, T/C (second compound 1 µM, first compound 0.00316 µM): 92.5% | viability, T/C (second compound 1 µM, first compound 0.00999 µM): 92.3% | viability, T/C [7]: 65.1% | viability, T/C (second compound 1 µM, first compound 0.0999 µM): 24.5% | viability, T/C [8]: 8.83% | viability, T/C (second compound 3.16 µM, first compound 0.000999 µM): 90.1% | viability, T/C (second compound 3.16 µM, first compound 0.00316 µM): 86.7% | viability, T/C (second compound 3.16 µM, first compound 0.00999 µM): 82.1% | viability, T/C [9]: 70.3% | viability, T/C (second compound 3.16 µM, first compound 0.0999 µM): 26.2% | viability, T/C [10]: 7.17% | viability, T/C (second compound 10 µM, first compound 0.000999 µM): 68% | viability, T/C (second compound 10 µM, first compound 0.00316 µM): 70.9% | viability, T/C (second compound 10 µM, first compound 0.00999 µM): 65.6% | viability, T/C [11]: 51.8% | viability, T/C (second compound 10 µM, first compound 0.0999 µM): 27.1% | viability, T/C [12]: 4.66%

O=C(NO)c1cnc(N2CCN(S(=O)(=O)c3ccc4ccccc4c3)CC2)nc1 + CN(C)c1ccc(Nc2c3ccc(NC(=O)CCN4CCCC4)cc3nc3cc(NC(=O)CCN4CCCC4)ccc23)cc1
IC50 (second compound 0.0316 µM): 212 nM | IC50 (second compound 0.1 µM): 202 nM | IC50 (second compound 0.316 µM): 197 nM | IC50 (second compound 1 µM): 195 nM | IC50 (second compound 3.16 µM): 178 nM | IC50 (second compound 10 µM): 141 nM | viability, T/C [1]: 107% | viability, T/C [13]: 89.7% | viability, T/C [2]: 28.9% | viability, T/C [14]: 3.06% | viability, T/C [15]: 0.12% | viability, T/C [16]: 1% | viability, T/C [3]: 102% | viability, T/C [17]: 83.4% | viability, T/C [4]: 28.9% | viability, T/C [18]: 2.6% | viability, T/C [19]: 0.1% | viability, T/C [20]: 0.19% | viability, T/C [5]: 86% | viability, T/C [21]: 83.4% | viability, T/C [6]: 26.8% | viability, T/C [22]: 3.25% | viability, T/C [23]: 0.11% | viability, T/C [24]: 0.17% | viability, T/C [7]: 81.4% | viability, T/C [25]: 77.2% | viability, T/C [8]: 30.3% | viability, T/C [26]: 3.47% | viability, T/C [27]: 0.09% | viability, T/C [28]: 0.35% | viability, T/C [9]: 77.8% | viability, T/C [29]: 70.8% | viability, T/C [10]: 29.4% | viability, T/C [30]: 2.84% | viability, T/C [31]: 0.54% | viability, T/C [32]: 0.91% | viability, T/C [11]: 59.5% | viability, T/C [33]: 55.8% | viability, T/C [12]: 34.1% | viability, T/C [34]: 2.57% | viability, T/C [35]: 0.19% | viability, T/C [36]: 0.77%

COc1ccc([C@@H](O)c2cc(-c3ncnc4cc(N5CCOCC5)ccc34)c(F)cc2Cl)nn1 + Cc1[nH]c2ccc(F)cc2c1-c1nc2c3cccnc3c3ncccc3c2[nH]1
IC50 (second compound 0.0316 µM): 7420 nM | IC50 (second compound 0.1 µM): > 10000 nM | IC50 (second compound 0.316 µM): > 10000 nM | IC50 (second compound 1 µM): 9540 nM | IC50 (second compound 3.16 µM): > 10000 nM | IC50 (second compound 10 µM): 7100 nM | viability, T/C [1]: 120% | viability, T/C [13]: 101% | viability, T/C [2]: 106% | viability, T/C [14]: 87.6% | viability, T/C [15]: 59.3% | viability, T/C [16]: 46.9% | viability, T/C [3]: 115% | viability, T/C [17]: 104% | viability, T/C [4]: 95.3% | viability, T/C [18]: 85.4% | viability, T/C [19]: 75% | viability, T/C [20]: 55.3% | viability, T/C [5]: 99.3% | viability, T/C [21]: 106% | viability, T/C [6]: 85.4% | viability, T/C [22]: 91.5% | viability, T/C [23]: 65.9% | viability, T/C [24]: 53.5% | viability, T/C [7]: 98.2% | viability, T/C [25]: 97.3% | viability, T/C [8]: 96.2% | viability, T/C [26]: 75.8% | viability, T/C [27]: 70.6% | viability, T/C [28]: 48.5% | viability, T/C [9]: 94.8% | viability, T/C [29]: 94.1% | viability, T/C [10]: 92.3% | viability, T/C [30]: 91.2% | viability, T/C [31]: 66% | viability, T/C [32]: 50.7% | viability, T/C [11]: 89.2% | viability, T/C [33]: 80.2% | viability, T/C [12]: 93.9% | viability, T/C [34]: 72.2% | viability, T/C [35]: 66.9% | viability, T/C [36]: 43.4%
